Assays:
Test in all cases: relative viability (nuclei count vs DMSO), 5 days (fraction); higher = more cells survive
[1] = compound: CCn1c(-c2nonc2N)nc2cnc(Oc3cccc(NC(=O)c4ccc(OCCN5CCOCC5)cc4)c3)cc21 + C[C@]1(O)C[C@@H](c2nc(-c3ccc4ccc(-c5ccccc5)nc4c3)c3c(N)nccn32)C1 [Linsitinib] (partner 1 µM)
In short: (§1)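 Relative viability is defined as nuclei in treated wells over nuclei in vehicle wells. Duplicate plates were run and medians reported. Lung cancer cell lines in 1536-well plates were dosed by pin tool one day after seeding, with one drug or with a fixed anchor-drug dose plus five library-drug doses (not always all listed) in √10 steps, and nuclei were counted after 5 days.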

[2] = compound: CCn1c(-c2nonc2N)nc2cnc(Oc3cccc(NC(=O)c4ccc(OCCN5CCOCC5)cc4)c3)cc21 + CS(=O)(=O)N1CCN(Cc2cc3nc(-c4cccc5[nH]ncc45)nc(N4CCOCC4)c3s2)CC1 [Pictilisib] (partner 1 µM)
In short: as §1

Mirin + Pemetrexed = compound: N=C1NC(=O)/C(=C/c2ccc(O)cc2)S1 [Mirin] + Nc1nc2[nH]cc(CCc3ccc(C(=O)N[C@@H](CCC(=O)O)C(=O)O)cc3)c2c(=O)[nH]1 [Pemetrexed] (partner 0.2 µM)
In short: as §1

Mirin + Palbociclib = compound: N=C1NC(=O)/C(=C/c2ccc(O)cc2)S1 [Mirin] + CC(=O)c1c(C)c2cnc(Nc3ccc(N4CCNCC4)cn3)nc2n(C2CCCC2)c1=O [Palbociclib] (partner 0.5 µM)
In short: as §1

| Cell Line | relative viability ([1]; first compound 0.04 µM) | relative viability ([1]; first compound 0.1265 µM) | relative viability ([1]; first compound 0.4 µM) | relative viability ([1]; first compound 1.265 µM) | relative viability ([1]; first compound 4 µM) | relative viability ([2]; first compound 0.04 µM) | relative viability ([2]; first compound 0.1265 µM) | relative viability ([2]; first compound 0.4 µM) | relative viability ([2]; first compound 1.265 µM) | relative viability ([2]; first compound 4 µM) | relative viability (Mirin + Pemetrexed; first compound 0.25 µM) | relative viability (Mirin + Pemetrexed; first compound 0.7906 µM) | relative viability (Mirin + Pemetrexed; first compound 2.5 µM) | relative viability (Mirin + Pemetrexed; first compound 7.906 µM) | relative viability (Mirin + Pemetrexed; first compound 25 µM) | relative viability (Mirin + Palbociclib; first compound 0.25 µM) | relative viability (Mirin + Palbociclib; first compound 0.7906 µM) | relative viability (Mirin + Palbociclib; first compound 2.5 µM) | relative viability (Mirin + Palbociclib; first compound 7.906 µM) | relative viability (Mirin + Palbociclib; first compound 25 µM) |
| --- | --- | --- | --- | --- | --- | --- | --- | --- | --- | --- | --- | --- | --- | --- | --- | --- | --- | --- | --- | --- |
| COR-L 105 | 0.774 | 0.766 | 0.862 | 0.451 | 0.391 | 0.361 | 0.368 | 0.277 | 0.17 | 0.249 | 1.08 | 1.21 | 1.11 | 1.11 | 1.07 | 0.426 | 0.415 | 0.376 | 0.432 | 0.42 |
| NCI-H1993 | 0.701 | 0.762 |  | 0.699 | 0.702 | 0.885 | 0.855 |  | 0.625 | 0.712 | 0.625 | 0.633 | 0.578 | 0.541 | 0.584 | 0.614 | 0.281 | 0.586 | 0.524 | 0.543 |
| NCI-H1437 | 1.31 | 1 | 1.05 | 0.742 | 0.549 | 0.383 | 0.39 | 0.257 | 0.443 | 0.283 | 0.313 | 0.351 | 0.377 | 0.345 | 0.31 | 0.358 | 0.32 | 0.292 | 0.318 | 0.327 |
| PC-14 | 1 | 0.901 | 0.878 | 0.716 | 0.648 | 1.06 | 0.708 | 0.751 | 0.619 | 0.666 | 0.127 | 0.14 | 0.143 | 0.134 | 0.171 | 0.528 | 0.558 | 0.508 | 0.512 | 0.522 |
| NCI-H1666 | 0.797 | 0.985 | 0.949 | 0.667 | 0.413 | 0.527 | 0.409 | 0.499 | 0.329 | 0.246 | 0.821 | 0.805 | 0.827 | 0.875 | 0.841 | 0.684 | 0.665 | 0.64 | 0.627 | 0.662 |
| NCI-H1944 | 1.31 | 1.18 |  | 1.14 | 1.16 | 0.373 | 0.341 |  | 0.269 | 0.307 | 0.636 | 0.627 | 0.598 | 0.558 | 0.598 | 0.315 | 0.325 | 0.328 | 0.287 | 0.226 |
| NCI-H2023 | 0.802 | 0.694 | 0.71 | 0.566 | 0.482 | 0.315 | 0.293 | 0.199 | 0.231 | 0.221 | 0.254 | 0.258 | 0.218 | 0.247 | 0.156 | 0.386 | 0.368 | 0.409 | 0.349 | 0.315 |
| NCI-H1755 | 1.08 | 1.01 | 0.936 | 0.963 | 0.937 | 0.484 | 0.391 | 0.327 | 0.331 | 0.3 | 0.38 | 0.402 | 0.404 | 0.348 | 0.384 | 0.469 | 0.449 | 0.403 | 0.478 | 0.532 |
| NCI-H2347 | 0.981 | 0.927 | 0.93 | 0.447 | 0.48 | 0.94 | 0.648 | 1.05 | 0.556 | 0.563 | 0.424 | 0.474 | 0.47 | 0.422 | 0.473 | 0.444 | 0.465 | 0.506 | 0.422 | 0.436 |
| 201T | 1.01 | 1.05 | 1.03 | 1.03 | 1.1 | 0.732 | 0.67 | 0.586 | 0.631 | 0.743 | 0.307 | 0.309 | 0.337 | 0.336 | 0.302 | 0.365 | 0.413 | 0.353 | 0.348 | 0.395 |
| NCI-H1734 | 1.06 | 0.796 | 0.807 | 0.648 | 0.485 | 0.47 | 0.415 | 0.282 | 0.309 | 0.249 | 0.441 | 0.44 | 0.414 | 0.355 | 0.346 | 0.349 | 0.364 | 0.356 | 0.32 | 0.344 |
| NCI-H1355 | 0.904 | 0.77 | 0.802 | 0.834 | 0.812 | 0.446 | 0.418 | 0.338 | 0.32 | 0.277 | 1.06 | 1.09 | 1.08 | 1 | 1.11 | 0.395 | 0.427 | 0.41 | 0.412 | 0.443 |
| NCI-H1915 | 1.16 | 1.11 | 1.07 | 1.07 | 1.06 | 1.01 | 0.971 | 0.908 | 0.648 | 0.64 | 0.469 | 0.484 | 0.504 | 0.434 | 0.433 | 0.502 | 0.48 | 0.503 | 0.504 | 0.438 |
| BEN | 0.931 | 0.935 | 0.799 | 0.311 | 0.313 | 0.574 | 0.501 | 0.43 | 0.285 | 0.318 | 0.661 | 0.779 | 0.799 | 0.667 | 0.581 | 0.485 | 0.468 | 0.423 | 0.424 | 0.426 |
| NCI-H322M | 1.03 | 0.845 | 0.912 | 0.939 | 0.808 | 0.579 | 0.541 | 0.581 | 0.693 | 0.591 | 0.633 | 0.528 | 0.615 | 0.713 | 0.568 | 0.466 | 0.497 | 0.521 | 0.553 | 0.522 |
| SK-MES-1 | 1.24 | 0.952 | 0.896 | 0.774 | 0.823 | 0.365 | 0.355 | 0.386 | 0.422 | 0.323 | 0.993 | 1.09 | 0.998 | 1.08 | 1.01 | 0.305 | 0.338 | 0.303 | 0.3 | 0.451 |
